These results are taken from ChEMBL document CHEMBL1147394, “Zaragozic acids D and D2: potent inhibitors of squalene synthase and of Ras farnesyl-protein transferase” (J Nat Prod, 1993).

One assay deals with T1, Squalene synthase (Rattus norvegicus, UniProt Q02769).
T1 sequence (Q02769 whole entry): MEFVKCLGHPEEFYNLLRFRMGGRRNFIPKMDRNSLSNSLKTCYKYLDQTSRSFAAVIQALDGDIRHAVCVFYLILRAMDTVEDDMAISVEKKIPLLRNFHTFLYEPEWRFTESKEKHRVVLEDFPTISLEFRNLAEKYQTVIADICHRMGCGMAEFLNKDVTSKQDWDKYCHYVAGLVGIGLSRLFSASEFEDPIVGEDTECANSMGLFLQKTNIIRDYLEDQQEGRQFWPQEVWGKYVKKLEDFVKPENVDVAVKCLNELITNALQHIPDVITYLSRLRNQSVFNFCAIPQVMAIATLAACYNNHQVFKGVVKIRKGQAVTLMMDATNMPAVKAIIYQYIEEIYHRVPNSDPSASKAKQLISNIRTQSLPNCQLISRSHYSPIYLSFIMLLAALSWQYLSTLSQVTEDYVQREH
The assay can be described thus: Inhibition of rat liver squalene synthase by liqiud scintillation counting.

A short description of assay [1]: Inhibition of bovine Ras FPTase. Details: species or system Bos taurus.

By IC50 is commonly meant the point on the concentration scale where inhibition reaches its midpoint. Lower therefore signals higher potency.

Take `CC(=O)O[C@H](CCC[C@]12O[C@H](C(=O)O)[C@@](O)(C(=O)O)[C@](C(=O)O)(O1)[C@H](OC(=O)CC/C=C/[C@H](C)CCCc1ccccc1)[C@H]2O)[C@H](C)Cc1ccccc1` [ZARAGOZIC ACID C]: the IC50 was 0.4 nM against Squalene synthase and 150 nM in assay [1]. For the compound `C/C=C/CCCC/C=C/CCCCC(=O)O[C@@H]1[C@@H](O)[C@@]2(CCC(C)C(O)C(C)C/C=C/c3ccccc3)O[C@H](C(=O)O)[C@@](O)(C(=O)O)[C@]1(C(=O)O)O2` (some centres undefined) [ZARAGOZIC ACID B], the IC50 at Squalene synthase worked out at 0.2 nM; in assay [1] it was 1000 nM. The compound `C=C(CC[C@]12O[C@H](C(=O)O)[C@@](O)(C(=O)O)[C@](C(=O)O)(O1)[C@H](OC(=O)/C=C/[C@@H](C)C[C@@H](C)CC)[C@H]2O)[C@@H](OC(C)=O)[C@H](C)Cc1ccccc1` [ZARAGOZIC ACIDS A] gave an IC50 in assay [1] of 250 nM. With `CCCCCCCC(=O)O[C@@H]1[C@@H](O)[C@@]2(CCCC(OC(C)=O)C(C)C/C=C/c3ccccc3)O[C@H](C(=O)O)[C@@](O)(C(=O)O)[C@]1(C(=O)O)O2` (some centres undefined) [ZARAGOZIC ACID D], the IC50 was 6 nM against Squalene synthase and 100 nM in assay [1]. For `CCCCCCCCCC(=O)O[C@@H]1[C@@H](O)[C@@]2(CCCC(OC(C)=O)C(C)C/C=C/c3ccccc3)O[C@H](C(=O)O)[C@@](O)(C(=O)O)[C@]1(C(=O)O)O2` (some centres undefined) [ZARAGOZIC ACID D2] the same measures were 2 nM and 100 nM.
